Assay results published in ChEMBL document CHEMBL3991601, “The target landscape of clinical kinase drugs” (Science, 2017).
Calls of active or inactive are those of the source. Cut-off read from the data, not from the text of the source, for most assays here: actives have a measured Kd and inactives only a lower limit.

What was measured:
TGF-beta receptor type-1 = molecular target: T1, TGF-beta receptor type-1 (Homo sapiens, UniProt P36897)
T1 sequence (P36897 whole entry): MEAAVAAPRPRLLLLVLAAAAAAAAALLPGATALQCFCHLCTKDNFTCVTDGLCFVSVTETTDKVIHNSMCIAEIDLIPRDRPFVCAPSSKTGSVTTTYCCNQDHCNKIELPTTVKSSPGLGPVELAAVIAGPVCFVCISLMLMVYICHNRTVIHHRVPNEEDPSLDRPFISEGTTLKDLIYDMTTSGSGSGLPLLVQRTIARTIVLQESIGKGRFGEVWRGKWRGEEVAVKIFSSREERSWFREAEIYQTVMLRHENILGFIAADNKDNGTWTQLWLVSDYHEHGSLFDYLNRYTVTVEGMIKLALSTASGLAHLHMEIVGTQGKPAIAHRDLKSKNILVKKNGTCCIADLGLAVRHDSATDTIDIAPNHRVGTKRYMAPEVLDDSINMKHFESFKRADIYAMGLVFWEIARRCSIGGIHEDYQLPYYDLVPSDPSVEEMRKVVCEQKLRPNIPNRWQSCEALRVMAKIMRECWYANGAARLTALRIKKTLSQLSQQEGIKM

[1] = molecular target: Citron Rho-interacting kinase (Homo sapiens, UniProt O14578)
Citron Rho-interacting kinase, sequence (O14578 whole entry): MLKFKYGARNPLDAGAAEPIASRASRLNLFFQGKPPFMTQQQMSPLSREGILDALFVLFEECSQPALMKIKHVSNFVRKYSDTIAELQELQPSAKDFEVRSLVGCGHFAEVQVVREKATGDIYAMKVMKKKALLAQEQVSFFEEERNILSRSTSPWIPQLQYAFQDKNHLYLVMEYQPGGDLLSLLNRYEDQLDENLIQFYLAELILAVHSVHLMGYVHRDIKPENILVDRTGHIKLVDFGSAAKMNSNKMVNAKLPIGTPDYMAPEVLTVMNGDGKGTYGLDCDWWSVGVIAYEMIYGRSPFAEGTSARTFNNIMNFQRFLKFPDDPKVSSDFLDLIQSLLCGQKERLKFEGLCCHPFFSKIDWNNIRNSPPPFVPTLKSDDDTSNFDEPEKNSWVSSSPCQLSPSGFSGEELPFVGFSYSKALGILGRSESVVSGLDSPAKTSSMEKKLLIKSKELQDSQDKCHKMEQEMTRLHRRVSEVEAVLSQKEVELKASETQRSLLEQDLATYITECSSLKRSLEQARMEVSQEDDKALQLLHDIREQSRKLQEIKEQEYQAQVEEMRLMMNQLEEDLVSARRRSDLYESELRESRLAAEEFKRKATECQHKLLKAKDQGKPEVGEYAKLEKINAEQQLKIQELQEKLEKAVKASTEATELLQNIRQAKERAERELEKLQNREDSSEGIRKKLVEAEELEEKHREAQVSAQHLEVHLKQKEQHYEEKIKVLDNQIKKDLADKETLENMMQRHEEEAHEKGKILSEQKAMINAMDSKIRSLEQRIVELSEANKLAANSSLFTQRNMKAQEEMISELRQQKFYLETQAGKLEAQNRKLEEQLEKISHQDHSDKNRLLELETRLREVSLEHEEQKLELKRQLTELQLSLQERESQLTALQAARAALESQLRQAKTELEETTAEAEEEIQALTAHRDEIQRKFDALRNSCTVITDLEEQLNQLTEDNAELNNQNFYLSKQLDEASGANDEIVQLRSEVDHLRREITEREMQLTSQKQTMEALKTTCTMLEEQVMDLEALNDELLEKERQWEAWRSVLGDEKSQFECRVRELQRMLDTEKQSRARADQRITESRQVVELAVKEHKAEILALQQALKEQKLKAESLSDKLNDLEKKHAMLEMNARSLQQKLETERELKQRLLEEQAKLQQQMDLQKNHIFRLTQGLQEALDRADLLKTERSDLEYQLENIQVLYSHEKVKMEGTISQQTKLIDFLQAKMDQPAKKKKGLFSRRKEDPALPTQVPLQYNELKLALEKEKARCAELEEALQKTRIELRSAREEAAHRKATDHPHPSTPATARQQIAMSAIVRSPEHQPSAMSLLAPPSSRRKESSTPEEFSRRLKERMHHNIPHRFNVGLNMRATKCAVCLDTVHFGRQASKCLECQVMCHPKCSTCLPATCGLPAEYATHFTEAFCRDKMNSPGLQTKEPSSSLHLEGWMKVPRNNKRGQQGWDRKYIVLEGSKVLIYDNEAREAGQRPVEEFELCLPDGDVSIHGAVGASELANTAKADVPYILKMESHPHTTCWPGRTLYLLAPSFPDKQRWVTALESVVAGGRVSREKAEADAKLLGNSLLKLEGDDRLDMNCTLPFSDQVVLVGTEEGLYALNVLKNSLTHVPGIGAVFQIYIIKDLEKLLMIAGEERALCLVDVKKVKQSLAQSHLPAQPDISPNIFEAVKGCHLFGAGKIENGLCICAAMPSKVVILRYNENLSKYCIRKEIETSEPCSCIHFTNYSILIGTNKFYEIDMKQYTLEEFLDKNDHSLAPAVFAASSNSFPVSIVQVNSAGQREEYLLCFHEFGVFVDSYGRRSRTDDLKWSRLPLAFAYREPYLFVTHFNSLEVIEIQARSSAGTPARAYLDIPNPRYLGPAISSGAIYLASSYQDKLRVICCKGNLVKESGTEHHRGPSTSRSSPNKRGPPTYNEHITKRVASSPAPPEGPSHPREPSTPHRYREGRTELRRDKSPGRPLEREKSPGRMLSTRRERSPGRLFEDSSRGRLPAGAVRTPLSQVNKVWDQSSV

[2] = molecular target: Mitogen-activated protein kinase kinase kinase 20 (Homo sapiens, UniProt Q9NYL2)
Mitogen-activated protein kinase kinase kinase 20, sequence (Q9NYL2 whole entry): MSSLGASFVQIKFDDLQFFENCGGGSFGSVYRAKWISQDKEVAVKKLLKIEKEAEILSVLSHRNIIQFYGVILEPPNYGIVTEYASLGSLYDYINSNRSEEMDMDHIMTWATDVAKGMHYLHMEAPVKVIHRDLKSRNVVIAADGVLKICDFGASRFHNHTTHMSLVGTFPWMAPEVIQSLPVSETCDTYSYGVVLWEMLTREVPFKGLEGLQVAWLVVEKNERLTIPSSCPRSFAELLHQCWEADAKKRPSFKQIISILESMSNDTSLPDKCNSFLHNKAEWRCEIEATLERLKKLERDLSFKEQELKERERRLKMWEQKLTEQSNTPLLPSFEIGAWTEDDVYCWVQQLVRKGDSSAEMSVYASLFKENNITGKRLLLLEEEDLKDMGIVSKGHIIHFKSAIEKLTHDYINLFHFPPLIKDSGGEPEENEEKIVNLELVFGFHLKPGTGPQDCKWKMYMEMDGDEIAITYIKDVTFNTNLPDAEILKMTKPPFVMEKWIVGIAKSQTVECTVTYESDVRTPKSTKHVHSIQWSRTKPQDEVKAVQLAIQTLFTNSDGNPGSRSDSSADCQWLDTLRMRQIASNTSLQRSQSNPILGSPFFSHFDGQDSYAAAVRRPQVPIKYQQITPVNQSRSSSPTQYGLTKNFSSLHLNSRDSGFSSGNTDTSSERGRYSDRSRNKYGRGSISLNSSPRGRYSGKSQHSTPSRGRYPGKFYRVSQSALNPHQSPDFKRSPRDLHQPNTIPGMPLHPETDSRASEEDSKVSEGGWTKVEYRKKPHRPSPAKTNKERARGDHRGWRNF

[3] = molecular target: T2, Serine/threonine-protein kinase D3 (Homo sapiens, UniProt O94806)
T2 sequence (O94806 whole entry): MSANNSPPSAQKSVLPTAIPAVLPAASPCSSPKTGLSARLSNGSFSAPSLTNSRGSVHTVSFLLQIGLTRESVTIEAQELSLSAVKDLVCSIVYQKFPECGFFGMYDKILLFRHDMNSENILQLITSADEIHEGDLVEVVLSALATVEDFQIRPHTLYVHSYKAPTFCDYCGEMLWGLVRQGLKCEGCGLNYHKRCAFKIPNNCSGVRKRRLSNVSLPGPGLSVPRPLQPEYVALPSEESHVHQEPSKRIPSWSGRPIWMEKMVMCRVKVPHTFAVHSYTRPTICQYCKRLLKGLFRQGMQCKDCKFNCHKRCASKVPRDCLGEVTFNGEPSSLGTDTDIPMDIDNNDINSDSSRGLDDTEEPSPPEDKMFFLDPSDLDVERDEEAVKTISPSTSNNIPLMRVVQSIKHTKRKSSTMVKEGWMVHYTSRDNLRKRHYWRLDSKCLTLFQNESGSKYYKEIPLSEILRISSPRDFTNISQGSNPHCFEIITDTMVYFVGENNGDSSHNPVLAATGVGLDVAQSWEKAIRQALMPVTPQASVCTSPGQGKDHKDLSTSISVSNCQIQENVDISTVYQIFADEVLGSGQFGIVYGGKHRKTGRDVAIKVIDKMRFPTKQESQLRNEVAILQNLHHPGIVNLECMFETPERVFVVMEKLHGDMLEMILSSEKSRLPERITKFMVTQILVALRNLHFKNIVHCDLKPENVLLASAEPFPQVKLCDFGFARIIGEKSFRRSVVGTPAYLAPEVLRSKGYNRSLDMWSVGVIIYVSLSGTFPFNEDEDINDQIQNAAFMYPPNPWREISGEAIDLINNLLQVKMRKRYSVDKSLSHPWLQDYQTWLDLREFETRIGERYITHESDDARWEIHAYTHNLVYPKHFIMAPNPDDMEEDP

[4] = molecular target: T3, Membrane-associated tyrosine- and threonine-specific cdc2-inhibitory kinase (Homo sapiens, UniProt Q99640)
T3 sequence (Q99640 whole entry): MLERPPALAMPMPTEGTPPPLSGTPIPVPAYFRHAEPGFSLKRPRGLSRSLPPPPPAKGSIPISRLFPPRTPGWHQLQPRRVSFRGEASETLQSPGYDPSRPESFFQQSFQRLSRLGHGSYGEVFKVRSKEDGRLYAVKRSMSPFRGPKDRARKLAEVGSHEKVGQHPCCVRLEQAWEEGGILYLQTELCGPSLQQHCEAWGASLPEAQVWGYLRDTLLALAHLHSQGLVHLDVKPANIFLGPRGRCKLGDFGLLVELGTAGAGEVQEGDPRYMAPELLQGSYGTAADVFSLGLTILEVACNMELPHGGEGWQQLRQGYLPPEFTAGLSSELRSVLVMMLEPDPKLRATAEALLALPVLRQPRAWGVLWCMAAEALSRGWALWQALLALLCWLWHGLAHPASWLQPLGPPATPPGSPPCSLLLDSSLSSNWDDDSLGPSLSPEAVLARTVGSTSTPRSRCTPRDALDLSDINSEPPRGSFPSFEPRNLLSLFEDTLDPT

[5] = molecular target: T4, Serine/threonine-protein kinase A-Raf (Homo sapiens, UniProt P10398)
T4 sequence (P10398 whole entry): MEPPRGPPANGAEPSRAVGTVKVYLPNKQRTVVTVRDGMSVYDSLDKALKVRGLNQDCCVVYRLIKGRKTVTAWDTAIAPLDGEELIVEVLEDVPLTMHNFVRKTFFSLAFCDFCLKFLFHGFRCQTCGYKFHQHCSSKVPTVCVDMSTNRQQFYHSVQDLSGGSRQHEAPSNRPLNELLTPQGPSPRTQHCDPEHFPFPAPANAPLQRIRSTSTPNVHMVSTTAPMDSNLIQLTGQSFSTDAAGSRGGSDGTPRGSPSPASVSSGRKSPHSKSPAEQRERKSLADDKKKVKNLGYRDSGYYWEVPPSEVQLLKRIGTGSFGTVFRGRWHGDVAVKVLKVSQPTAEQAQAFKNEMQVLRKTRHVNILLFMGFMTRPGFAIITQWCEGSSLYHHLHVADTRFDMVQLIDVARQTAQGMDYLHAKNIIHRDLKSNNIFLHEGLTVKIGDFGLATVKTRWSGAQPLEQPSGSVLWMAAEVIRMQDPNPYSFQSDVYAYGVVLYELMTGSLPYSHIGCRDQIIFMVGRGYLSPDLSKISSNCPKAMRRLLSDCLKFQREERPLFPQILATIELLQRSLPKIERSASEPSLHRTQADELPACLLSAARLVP

[6] = molecular target: Interleukin-1 receptor-associated kinase 1 (Homo sapiens, UniProt P51617)
Interleukin-1 receptor-associated kinase 1, sequence (P51617 whole entry): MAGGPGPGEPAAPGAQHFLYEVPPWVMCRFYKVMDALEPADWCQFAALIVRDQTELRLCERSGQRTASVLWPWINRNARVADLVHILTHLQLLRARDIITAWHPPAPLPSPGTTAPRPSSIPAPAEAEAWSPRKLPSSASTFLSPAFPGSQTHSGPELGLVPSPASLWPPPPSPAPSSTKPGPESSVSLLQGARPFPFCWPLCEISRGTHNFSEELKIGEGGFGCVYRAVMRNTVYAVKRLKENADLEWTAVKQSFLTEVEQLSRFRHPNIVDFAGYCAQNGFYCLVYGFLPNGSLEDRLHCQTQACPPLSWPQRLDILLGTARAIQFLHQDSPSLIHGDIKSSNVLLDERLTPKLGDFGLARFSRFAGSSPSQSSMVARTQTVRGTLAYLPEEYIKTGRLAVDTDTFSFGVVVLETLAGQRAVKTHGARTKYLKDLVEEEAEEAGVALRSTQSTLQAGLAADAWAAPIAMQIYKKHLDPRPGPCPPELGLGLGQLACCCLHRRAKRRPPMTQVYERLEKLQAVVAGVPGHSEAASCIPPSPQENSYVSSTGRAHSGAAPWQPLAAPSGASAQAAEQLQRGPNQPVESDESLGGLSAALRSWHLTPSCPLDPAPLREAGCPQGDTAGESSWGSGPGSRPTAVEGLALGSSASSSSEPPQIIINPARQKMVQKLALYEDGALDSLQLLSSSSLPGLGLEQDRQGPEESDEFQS

[7] = molecular target: Serine/threonine-protein kinase PAK 2 (Homo sapiens, UniProt Q13177)
Serine/threonine-protein kinase PAK 2, sequence (Q13177 whole entry): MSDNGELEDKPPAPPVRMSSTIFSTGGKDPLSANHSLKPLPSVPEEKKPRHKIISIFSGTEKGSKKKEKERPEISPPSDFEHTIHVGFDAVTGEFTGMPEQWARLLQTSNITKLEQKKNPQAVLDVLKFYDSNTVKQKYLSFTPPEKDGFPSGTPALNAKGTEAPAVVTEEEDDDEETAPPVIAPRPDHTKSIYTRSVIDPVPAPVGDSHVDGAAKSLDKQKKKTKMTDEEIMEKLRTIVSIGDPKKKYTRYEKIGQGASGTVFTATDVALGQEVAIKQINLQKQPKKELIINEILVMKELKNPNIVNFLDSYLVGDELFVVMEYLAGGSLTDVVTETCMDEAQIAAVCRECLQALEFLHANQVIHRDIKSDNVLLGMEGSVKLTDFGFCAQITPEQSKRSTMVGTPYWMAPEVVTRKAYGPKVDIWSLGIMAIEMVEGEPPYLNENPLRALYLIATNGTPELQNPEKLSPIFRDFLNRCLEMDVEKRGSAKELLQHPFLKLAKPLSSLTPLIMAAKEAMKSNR
Note: in the data inactive means no Kd found up to 30 µM.

Row | SMILES | Kd [2] | Kd [3] | Kd [5] | Kd (TGF-beta receptor type-1) | Kd [1] | Kd [4] | Kd [6] | Kd [7]
1 | Cc1c(NC(=O)OC[C@@H]2COCCN2)cn2ncnc(Nc3ccc4c(cnn4Cc4cccc(F)c4)c3)c12 [AC-480] | > 30 µM (inactive) | > 30 µM (inactive) | > 30 µM (inactive) | > 30 µM (inactive) | > 30 µM (inactive) | > 30 µM (inactive) | > 30 µM (inactive) | –
2 | CN(c1ncccc1CNc1nc(Nc2ccc3c(c2)CC(=O)N3)ncc1C(F)(F)F)S(C)(=O)=O [PF-00562271] | – | – | > 30 µM (inactive) | > 30 µM (inactive) | > 30 µM (inactive) | > 30 µM (inactive) | – | > 30 µM (inactive)
3 | C[C@]1(O)C[C@@H](c2nc(-c3ccc4ccc(-c5ccccc5)nc4c3)c3c(N)nccn32)C1 [LINSITINIB] | – | – | > 30 µM (inactive) | > 30 µM (inactive) | > 30 µM (inactive) | > 30 µM (inactive) | – | –
4 | Cn1c(=O)n(-c2ccc(C(C)(C)C#N)cc2)c2c3cc(-c4cnc5ccccc5c4)ccc3ncc21 [DACTOLISIB] | > 30 µM (inactive) | – | > 30 µM (inactive) | > 30 µM (inactive) | > 30 µM (inactive) | > 30 µM (inactive) | – | > 30 µM (inactive)
5 | COc1cc2c(Oc3ccc4[nH]c(C)cc4c3F)ncnc2cc1OCCCN1CCCC1 [CEDIRANIB] | – | – | > 30 µM (inactive) | – | – | – | – | –
6 | CC(C)CC(=O)Nc1[nH]nc2c1CN(C(=O)C1CCN(C)CC1)C2(C)C [PHA-793887] | > 30 µM (inactive) | 0.065 µM (active) | > 30 µM (inactive) | > 30 µM (inactive) | > 30 µM (inactive) | > 30 µM (inactive) | – | > 30 µM (inactive)
7 | C=CCn1c(=O)c2cnc(Nc3ccc(N4CCN(C)CC4)cc3)nc2n1-c1cccc(C(C)(C)O)n1 [ADAVOSERTIB] | > 30 µM (inactive) | – | > 30 µM (inactive) | > 30 µM (inactive) | > 30 µM (inactive) | – | > 30 µM (inactive) | > 30 µM (inactive)
8 | COc1cc2c(N3CCN(C(=O)Nc4ccc(OC(C)C)cc4)CC3)ncnc2cc1OCCCN1CCCCC1 [TANDUTINIB] | – | – | > 30 µM (inactive) | – | – | – | – | –
9 | CN(C)C/C=C/C(=O)Nc1cc2c(Nc3ccc(F)c(Cl)c3)ncnc2cc1O[C@H]1CCOC1 [AFATINIB] | – | – | > 30 µM (inactive) | – | – | – | – | –
10 | CCc1nc(C(N)=O)c(Nc2ccc(N3CCC(N4CCN(C)CC4)CC3)c(OC)c2)nc1NC1CCOCC1 [GILTERITINIB] | > 30 µM (inactive) | > 30 µM (inactive) | > 30 µM (inactive) | > 30 µM (inactive) | 2.35 µM (active) | > 30 µM (inactive) | > 30 µM (inactive) | –
11 | FC(F)(F)c1ccc(CNc2ccc(Cc3c[nH]c4ncc(Cl)cc34)cn2)cn1 [PEXIDARTINIB] | > 30 µM (inactive) | > 30 µM (inactive) | > 30 µM (inactive) | > 30 µM (inactive) | > 30 µM (inactive) | > 30 µM (inactive) | > 30 µM (inactive) | –
12 | N#CCNC(=O)c1ccc(-c2ccnc(Nc3ccc(N4CCOCC4)cc3)n2)cc1 [MOMELOTINIB] | – | – | > 30 µM (inactive) | > 30 µM (inactive) | 0.313 µM (active) | > 30 µM (inactive) | > 30 µM (inactive) | > 30 µM (inactive)
13 | Cn1cnc2c(F)c(Nc3ccc(Br)cc3Cl)c(C(=O)NOCCO)cc21 [SELUMETINIB] | – | – | > 30 µM (inactive) | – | – | – | – | –
14 | CC1(C)CNc2cc(NC(=O)c3cccnc3NCc3ccncc3)ccc21 [MOTESANIB] | – | – | > 30 µM (inactive) | – | – | – | – | –
15 | O=S(=O)(c1cccc2cnccc12)N1CCCNCC1 [FASUDIL] | > 30 µM (inactive) | – | > 30 µM (inactive) | > 30 µM (inactive) | 48.9 µM (active) | > 30 µM (inactive) | > 30 µM (inactive) | > 30 µM (inactive)
16 | Cc1c(Cn2c(C)nc3c(C(=O)O)cc(N4CCOCC4)cc32)cccc1C(F)(F)F [GSK-2636771] | > 30 µM (inactive) | > 30 µM (inactive) | > 30 µM (inactive) | > 30 µM (inactive) | > 30 µM (inactive) | > 30 µM (inactive) | > 30 µM (inactive) | –
17 | CCN(CCCOc1ccc2c(Nc3cc(CC(=O)Nc4cccc(F)c4)n[nH]3)ncnc2c1)CCOP(=O)(O)O [BARASERTIB] | > 30 µM (inactive) | – | – | > 30 µM (inactive) | > 30 µM (inactive) | > 30 µM (inactive) | > 30 µM (inactive) | > 30 µM (inactive)
18 | COc1cc2ncnc(Nc3ccc(F)c(Cl)c3)c2cc1NC(=O)/C=C/CN1CCCCC1 [DACOMITINIB ANHYDROUS] | > 30 µM (inactive) | > 30 µM (inactive) | > 30 µM (inactive) | > 30 µM (inactive) | > 30 µM (inactive) | > 30 µM (inactive) | > 30 µM (inactive) | –

Further lines, with some results ahead:

Row | Kd [2] | Kd [3] | Kd [5] | SMILES | Kd (TGF-beta receptor type-1) | Kd [1] | Kd [4] | Kd [6] | Kd [7]
19 | > 30 µM (inactive) | > 30 µM (inactive) | > 30 µM (inactive) | NC(=O)c1ccc(N(C(N)=O)c2c(F)cccc2F)nc1-c1ccc(F)cc1F [VX-702] | > 30 µM (inactive) | > 30 µM (inactive) | > 30 µM (inactive) | > 30 µM (inactive) | –
20 | – | – | > 30 µM (inactive) | C[C@@]1(C(=O)Nc2ccc(F)nc2)CCCN1c1nc(Nc2cc(C3CC3)n[nH]2)c2cccn2n1 [BMS-754807] | – | – | – | – | –
21 | > 30 µM (inactive) | > 30 µM (inactive) | – | CCOc1ccn(-c2ccc(F)cc2)c(=O)c1C(=O)Nc1ccc(Oc2ccnc(N)c2Cl)c(F)c1 [BMS-777607] | > 30 µM (inactive) | > 30 µM (inactive) | > 30 µM (inactive) | – | > 30 µM (inactive)
22 | > 30 µM (inactive) | – | > 30 µM (inactive) | CC(C)(O)CC(=O)NCCn1ccc2ncnc(Nc3ccc(Oc4cccc(C(F)(F)F)c4)c(Cl)c3)c21 [TAK-285] | > 30 µM (inactive) | > 30 µM (inactive) | > 30 µM (inactive) | > 30 µM (inactive) | > 30 µM (inactive)
23 | 7.73 µM (active) | > 30 µM (inactive) | > 30 µM (inactive) | O=C(Nc1ccc(OC(F)(F)F)cc1)c1sccc1NCc1ccnc2ccccc12 [OSI-930] | > 30 µM (inactive) | > 30 µM (inactive) | > 30 µM (inactive) | > 30 µM (inactive) | –
